From patent US20230346670A1, “Prebiotic Oral Care Compositions and Methods” (Colgate-Palmolive Company, priority 2020, published 2023)
Marks after values point to notes of the source that are not given here.

Tests used:
Type in all cases: cell-based
[1] = tested on: P. intermedia virulence genes; test: Virulence gene expression in multi-species biofilm (SYBR RT-qPCR); settings: for fold change in DnaJ expression, geometric mean (95% C.I.) / fold change in DnaK expression, geometric mean (95% C.I.) / fold change in ECF expression, geometric mean (95% C.I.) / fold change in GroES expression, geometric mean (95% C.I.) / fold change in HtpG expression, geometric mean (95% C.I.) / fold change in KpsD expression, geometric mean (95% C.I.) / fold change in adpc expression, geometric mean (95% C.I.) / fold change in clpB expression, geometric mean (95% C.I.) / fold change in inpA expression, geometric mean (95% C.I.) / fold change in phg expression, geometric mean (95% C.I.): relative to control = 1
Method: (§1) Biofilms are grown vertically on Calcium Deficient Hydroxyapatite (CAD-HA) disks (Hitemco Medical, Old Bethpage, USA) using the Amsterdam Active Adhesion model. Biofilms are allowed to establish during 24 h (37° C., 170 rpm) under microaerophilic conditions (6% O2, 7% CO2, 7% H2, 80% N2). After this 24 h, disks are rinsed 3 times a day for 3 minutes (RT, 250 rpm), for 3 consecutive days, by transferring the lid containing the disks to a new 24-well plate containing 2 mL/well of the appropriate substrate solution. As a negative control, PBS (pH 5.7) without substrate supplementation is used.
(§2) The virulence of the substrate-treated multi-species biofilms are evaluated by analyzing the relative expression of 33 genes that are recognized as being related to some form of virulence and from 4 periodontal pathogens.
(§3) Expression of bacterial virulence genes is analyzed through SYBR RT-qPCR and normalized for bacterial housekeeping gene expression. […] These effects are illustrated in Tables 6a and 6b:
Note, for Table 6d, fold changes in virulence gene expression are determined relatively to the control condition through the 2^^-ΔΔCt method and are shown as the geometric mean (C.I.) (n = 3) of the 2^^-ΔΔCt values. All substrates are dissolved in PBS at a concentration of 1 M (upper part) or 1%(w/v) (lower part). Values between 0 and 1 represent relative downregulation, values >1 represent relative upregulation. […] NADG: N-acetyl-D-glucosamine; C.I.: 95% confidence interval.

[2] = tested on: human oral keratinocytes (HOK-18A); test: Inflammatory mediator gene expression in keratinocytes exposed to substrate-treated biofilms (SYBR RT-qPCR); settings: relative to control, n = 3
Method: Cultures of immortalized human oral keratinocytes (HOK-18A) are grown. […] The IL-8 levels in the cellular supernatant are determined as well. RNA is converted to cDNA and relative expression of inflammatory mediator genes is determined as described above with respect to the cellular housekeeping gene β-actin.
In HOKs exposed to substrate-treated (substrate concentrations of […]) multi-species biofilms, there are mostly decreases in inflammatory mediator gene expression as measured via SYBR RT-qPCR, the results of which are detailed in Table 7:
Fold changes in inflammatory mediator gene expression from human oral keratinocytes (HOK-18A) exposed to substrate-treated multi-species biofilms are determined relatively to the control through the 2^^-ΔΔCt method and are shown as the geometric mean (C.I.) (n = 3) of the 2^^-ΔΔCt values. All substrates are dissolved in PBS at a concentration of 1 M (upper part) or 1%(w/v) (lower part). Values between 0 and 1 represent relative downregulation, values >1 represent relative upregulation.

[3] = tested on: multi-species biofilms; test: Organic acid levels in supernatant of multi-species biofilms (ion chromatography); settings: >0 production, <0 consumption, n = 3
Method: as §1
Levels of organic acids in the filter sterilized supernatant of the multi-species biofilms are measured using a 761 Compact Ion Chromatograph (Metrhohm, Switzerland) with a Metrosep Organic acids Guard/4.6 guard column. The supernatants from the substrate-treated multi-species biofilms are analyzed to gain more insight into the influence of the substrates on organic acid consumption/production.

[4] = tested on: F. nucleatum virulence genes; test: Virulence gene expression in multi-species biofilm (SYBR RT-qPCR); settings: relative to control = 1, 2^-ΔΔCt, n = 3
Method: as §1, §2, §3
Note, for Table 6c, fold changes in virulence gene expression are determined relative to the control condition through the 2^^-ΔΔCt method and are shown as the geometric mean (C.I.) (n = 3) of the 2^^-ΔΔCt values. All substrates are dissolved in PBS at a concentration of 1 M (upper part) or 1%(w/v) (lower part). Values between 0 and 1 represent relative downregulation, values >1 represent relative upregulation. […] NADG: N-acetyl-D-glucosamine; C.I.: 95% confidence interval.

[5] = lower part of Table 6d, head prints 1 M (lower part 1%(w/v))
[6] = upper part of Table 6d, substrate 1 M, n = 3
[7] = HOK-18A exposed to biofilms treated with substrate 1% (w/v)
[8] = HOK-18A exposed to biofilms treated with substrate 1 M
[9] = substrate 1 M, listed as D-(+)-raffinose

Compound: OC[C@H]1O[C@H](OC[C@H]2O[C@H](O[C@]3(CO)O[C@H](CO)[C@@H](O)[C@@H]3O)[C@H](O)[C@@H](O)[C@@H]2O)[C@H](O)[C@@H](O)[C@H]1O [D-raffinose, D-(+)-raffinose]
- fold change in DnaJ expression, geometric mean (95% C.I.) [1, 5]: 1.56 (0.59-4.12) fold
- fold change in DnaK expression, geometric mean (95% C.I.) [1, 5]: 1.76 (0.61-5.06) fold
- fold change in ECF expression, geometric mean (95% C.I.) [1, 5]: 0.96 (0.56-1.64) fold
- fold change in GroES expression, geometric mean (95% C.I.) [1, 5]: 0.98 (0.24-4.05) fold
- fold change in HtpG expression, geometric mean (95% C.I.) [1, 5]: 0.67 (0.43-1.04) fold
- fold change in KpsD expression, geometric mean (95% C.I.) [1, 5]: 0.90 (0.58-1.40) fold
- fold change in adpc expression, geometric mean (95% C.I.) [1, 5]: 0.85 (0.23-3.13) fold
- fold change in clpB expression, geometric mean (95% C.I.) [1, 5]: 1.13 (0.86-1.48) fold
- fold change in inpA expression, geometric mean (95% C.I.) [1, 5]: 0.98 (0.64-1.52) fold
- fold change in phg expression, geometric mean (95% C.I.) [1, 5]: 0.73 (0.33-1.63) fold
- impact on P. intermedia virulence gene expression ([1]; substrate 1% (w/v)): limited impact
- downregulation of P. intermedia virulence gene expression ([1]; substrate 1 M): 3 fold
- fold change in DnaJ expression, geometric mean (95% C.I.) [1, 6]: 1.76 (0.92-3.37) fold
- fold change in DnaK expression, geometric mean (95% C.I.) [1, 6]: 10.07 (6.81-14.89)^∗ fold
- fold change in ECF expression, geometric mean (95% C.I.) [1, 6]: 6.74 (1.96-23.20)^∗ fold
- fold change in GroES expression, geometric mean (95% C.I.) [1, 6]: 10.59 (4.96-22.60)^∗ fold
- fold change in HtpG expression, geometric mean (95% C.I.) [1, 6]: 1.90 (0.99-3.67)^∗ fold
- fold change in KpsD expression, geometric mean (95% C.I.) [1, 6]: 1.78 (0.71-4.45) fold
- fold change in adpc expression, geometric mean (95% C.I.) [1, 6]: 1.02 (0.40-2.60) fold
- fold change in clpB expression, geometric mean (95% C.I.) [1, 6]: 2.21 (1.53-3.21) fold
- fold change in inpA expression, geometric mean (95% C.I.) [1, 6]: 1.39 (0.67-2.90) fold
- fold change in phg expression, geometric mean (95% C.I.) [1, 6]: 0.33 (0.21-0.50)^∗ fold
- fold change in IL-1β gene expression, geometric mean (C.I.) [2, 7]: 0.93 (0.56-1.55) fold
- fold change in IL-6 gene expression, geometric mean (C.I.) [2, 7]: 0.70 (0.44-1.13)^∗ fold
- fold change in IL-8 gene expression, geometric mean (C.I.) [2, 7]: 1.08 (0.73-1.59) fold
- fold change in MMP-8 gene expression, geometric mean (C.I.) [2, 7]: 0.71 (0.38-1.35) fold
- fold change in TNF-α gene expression, geometric mean (C.I.) [2, 7]: 0.77 (0.55-1.08) fold
- fold change in IL-1β gene expression, geometric mean (C.I.) [2, 8]: 0.8 (0.44-1.46) fold
- fold change in IL-6 gene expression, geometric mean (C.I.) [2, 8]: 0.54 (0.17-1.72) fold
- fold change in IL-8 gene expression, geometric mean (C.I.) [2, 8]: 0.10 (0.04-0.29)^∗ fold
- fold change in MMP-8 gene expression, geometric mean (C.I.) [2, 8]: 0.85 (0.61-1.19) fold
- fold change in TNF-α gene expression, geometric mean (C.I.) [2, 8]: 0.66 (0.56-0.78)^∗ fold
- acetate level in biofilm supernatant, mean ± SD ([3]; substrate 1% (w/v)): 380 ± 23 mg/L
- butyrate level in biofilm supernatant, mean ± SD ([3]; substrate 1% (w/v)): 2003 ± 81 mg/L
- formate level in biofilm supernatant, mean ± SD ([3]; substrate 1% (w/v)): 3748 ± 197 mg/L
- lactate level in biofilm supernatant, mean ± SD ([3]; substrate 1% (w/v)): -125 ± 0 mg/L
- propionate level in biofilm supernatant, mean ± SD ([3]; substrate 1% (w/v)): 2033 ± 48 mg/L
- acetate level in biofilm supernatant, mean ± SD ([3]; substrate 1 M): 2640 ± 154^∗ mg/L
- butyrate level in biofilm supernatant, mean ± SD ([3]; substrate 1 M): 154 ± 26^∗ mg/L
- formate level in biofilm supernatant, mean ± SD ([3]; substrate 1 M): 344 ± 25^∗ mg/L
- lactate level in biofilm supernatant, mean ± SD ([3]; substrate 1 M): 971 ± 43^∗ mg/L
- propionate level in biofilm supernatant, mean ± SD ([3]; substrate 1 M): 4178 ± 105^∗ mg/L
- acetate level in biofilm supernatant, mean ± SD [3, 9]: 2640 ± 154 mg/L
- butyrate level in biofilm supernatant, mean ± SD [3, 9]: 154 ± 26 mg/L
- lactate level in biofilm supernatant, mean ± SD [3, 9]: 971 ± 43 mg/L
- propionate level in biofilm supernatant, mean ± SD [3, 9]: 4178 ± 105 mg/L
- fold change in ABC transp. perm. (ABC transporter permease) expression, geometric mean (95% C.I.) ([4]; substrate 1% (w/v)): 0.17 (0.04-0.65)^∗ fold
- fold change in EF-G expression, geometric mean (95% C.I.) ([4]; substrate 1% (w/v)): 0.12 (0.04-0.33)^∗ fold
- fold change in but. -coA transf. (butyrate-acetoacetate CoA-transferase) expression, geometric mean (95% C.I.) ([4]; substrate 1% (w/v)): 0.47 (0.06-3.98) fold
- fold change in hemin receptor expression, geometric mean (95% C.I.) ([4]; substrate 1% (w/v)): 0.12 (0.09-0.15)^∗ fold
- fold change in hemolysin expression, geometric mean (95% C.I.) ([4]; substrate 1% (w/v)): 0.51 (0.16-1.62)^∗ fold
- fold change in ompA expression, geometric mean (95% C.I.) ([4]; substrate 1% (w/v)): 0.70 (0.20-2.44) fold
- fold change in transposase expression, geometric mean (95% C.I.) ([4]; substrate 1% (w/v)): 0.78 (0.40-1.53) fold
- fold change in ABC transp. perm. (ABC transporter permease) expression, geometric mean (95% C.I.) ([4]; substrate 1 M): 41.25 (11.65-146.10)^∗ fold
- fold change in EF-G expression, geometric mean (95% C.I.) ([4]; substrate 1 M): 1.41 (0.70-2.83) fold
- fold change in but. -coA transf. (butyrate-acetoacetate CoA-transferase) expression, geometric mean (95% C.I.) ([4]; substrate 1 M): 3.95 (0.89-17.60)* fold
- fold change in hemin receptor expression, geometric mean (95% C.I.) ([4]; substrate 1 M): 18.04 (7.92-41.14)^∗ fold
- fold change in hemolysin expression, geometric mean (95% C.I.) ([4]; substrate 1 M): 2.50 (1.07-5.83)^∗ fold
- fold change in ompA expression, geometric mean (95% C.I.) ([4]; substrate 1 M): 1.07 (0.49-2.36) fold
- fold change in transposase expression, geometric mean (95% C.I.) ([4]; substrate 1 M): 251.47 (75.27-840.20)^∗ fold
